Experimental data as given in ChEMBL document CHEMBL2163249, “Exploration of natural compounds as sources of new bifunctional scaffolds targeting cholinesterases and beta amyloid aggregation: the case of chelerythrine” (Bioorg Med Chem, 2012).

Columns and labels:
[1] = molecular target: Acetylcholinesterase (Electrophorus electricus) (UniProt O42275); settings: at 2 mg/mL
Description: Inhibition of electric eel AChE at 2 mg/ml by Ellman's method

[2] = molecular target: Cholinesterase (Equus caballus) (UniProt P81908); settings: at 2 mg/mL
Sequence of Cholinesterase (Equus caballus) (P81908 whole entry): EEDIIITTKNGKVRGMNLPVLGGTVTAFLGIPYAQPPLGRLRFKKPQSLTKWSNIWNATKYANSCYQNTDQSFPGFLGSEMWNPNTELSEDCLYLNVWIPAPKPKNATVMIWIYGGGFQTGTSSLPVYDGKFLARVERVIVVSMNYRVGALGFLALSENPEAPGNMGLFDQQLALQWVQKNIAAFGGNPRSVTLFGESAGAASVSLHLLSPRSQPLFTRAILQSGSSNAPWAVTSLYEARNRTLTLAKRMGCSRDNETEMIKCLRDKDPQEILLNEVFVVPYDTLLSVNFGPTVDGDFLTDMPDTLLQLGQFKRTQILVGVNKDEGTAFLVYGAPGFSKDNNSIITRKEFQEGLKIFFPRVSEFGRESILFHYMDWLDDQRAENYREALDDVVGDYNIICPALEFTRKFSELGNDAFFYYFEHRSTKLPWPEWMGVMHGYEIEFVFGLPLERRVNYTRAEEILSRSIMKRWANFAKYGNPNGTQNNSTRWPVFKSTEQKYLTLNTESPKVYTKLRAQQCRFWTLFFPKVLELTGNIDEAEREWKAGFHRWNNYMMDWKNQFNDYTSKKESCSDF
Description: Inhibition of horse BChE at 2 mg/ml by Ellman's method

For `C=C1CC[C@H]2C(=C)CC[C@H]3C(=C)C(=O)O[C@@H]3[C@@H]12`, the inhibition [1] was 4.06% and the inhibition [2] was 10.7%.
In the case of `COc1ccc(-c2cc(=O)c3ccc(O)cc3o2)cc1`, the inhibition [1] is reported as 30.6% and the inhibition [2] is reported as 6.46%.
`CN(C)Cc1c[nH]c2ccccc12` gave an inhibition [1] of 15.3% and an inhibition [2] of 10.6%.
`CC1=C(O)C(=O)C=C2C1=CC=C1[C@@]2(C)CC[C@@]2(C)[C@@H]3C[C@](C)(C(=O)O)CC[C@]3(C)CC[C@]12C` was tested, and the inhibition [1] was 22.1% and the inhibition [2] was 1.01%.
Work on `CCCCCCC(=O)CCCCCC/C=C/C[C@@H](O)[C@H](O)[C@@](N)(CO)C(=O)O` yielded an inhibition [1] of -8.15% and an inhibition [2] of 1.5%.
Work on `COc1ccc2ccc(=O)oc2c1CC=C(C)C` yielded an inhibition [1] of 3.31% and an inhibition [2] of -0.19%.
`CN(C)c1ccc(O)c2c1C[C@H]1C[C@H]3[C@H](N(C)C)C(O)=C(C(N)=O)C(=O)[C@@]3(O)C(O)=C1C2=O` showed an inhibition [1] of -0.24% and an inhibition [2] of -8.62%.
With `CO[C@@]12[C@H](COC(N)=O)C3=C(C(=O)C(C)=C(N)C3=O)N1C[C@@H]1N[C@@H]12` the inhibition [1] was 4.01% and the inhibition [2] was 3.34%.
`CO[C@@H]1C[C@@H](C[C@H]2CC[C@H](C)[C@H]([C@@H](C)C(=O)O)O2)O[C@]2(O[C@](C)([C@H]3CC[C@@](C)([C@@H]4O[C@@H]([C@H]5O[C@@](O)(CO)[C@H](C)C[C@@H]5C)C[C@@H]4C)O3)C[C@H]2C)[C@@H]1C` was tested, and the inhibition [1] was -7.25% and the inhibition [2] was 4.98%.
Work on `COc1cc(O)c(C(=O)/C=C/c2ccccc2)c(OC)c1` yielded an inhibition [1] of 27.1% and an inhibition [2] of 4.56%.
`C[C@H]1CC[C@@H]2N(C1)C[C@H]1[C@@H]3C[C@H]4[C@@H](CC(=O)[C@H]5C[C@@H](O)CC[C@@]54C)[C@@H]3CC[C@H]1[C@]2(C)O` was tested, and the inhibition [1] was 24.9% and the inhibition [2] was 6.5%.
With `C/C=C/C/C=C/CCC(=O)[C@H]1O[C@H]1C(N)=O` the inhibition [1] was -4.02% and the inhibition [2] was 3.38%.
`COC1=C(N)C(=O)c2nc(-c3nc(C(=O)O)c(C)c(-c4ccc(OC)c(OC)c4O)c3N)ccc2C1=O` showed an inhibition [1] of -2.66% and an inhibition [2] of -5.44%.
`CO[C@H](C(=O)[C@@H](O)[C@@H](C)O)[C@@H]1Cc2cc3cc(O[C@H]4C[C@@H](O[C@H]5C[C@@H](O)[C@H](O)[C@@H](C)O5)[C@@H](O)[C@@H](C)O4)c(C)c(O)c3c(O)c2C(=O)[C@H]1O[C@H]1C[C@@H](O[C@H]2C[C@@H](O[C@H]3C[C@](C)(O)[C@H](O)[C@@H](C)O3)[C@H](O)[C@@H](C)O2)[C@H](O)[C@@H](O)O1` gave an inhibition [1] of -3.51% and an inhibition [2] of 6.61%.
With `C=C1[C@@H](C)[C@H]2[C@H](Cc3ccccc3)NC(=O)[C@]23[C@H](OC(C)=O)/C=C/[C@@](C)(O)C(=O)[C@@H](C)C/C=C/[C@H]3[C@@H]1O` the inhibition [1] was -2.15% and the inhibition [2] was 3.92%.
With `C[C@@H]1O[C@@H](OC[C@H]2O[C@@H](Oc3cc(O)c4c(c3)O[C@H](c3ccc(O)c(O)c3)CC4=O)[C@H](O)[C@@H](O)[C@@H]2O)[C@H](O)[C@H](O)[C@H]1O` the inhibition [1] was 21.5% and the inhibition [2] was 1.98%.
`O=c1cc(-c2ccccc2)oc2cc(O)ccc12` showed an inhibition [1] of 24.4% and an inhibition [2] of -0.25%.
In the case of `CC(C)CCNC(=O)[C@H](CC(C)C)NC(=O)[C@H]1O[C@@H]1C(=O)O`, the inhibition [1] is reported as -1.94% and the inhibition [2] is reported as 10.6%.
For `COc1ccc2c(c1OC)C(=O)OC2C1c2c(cc3c(c2OC)OCO3)CCN1C` (racemic), the inhibition [1] was -5.54% and the inhibition [2] was 3.34%.
Work on `C=C1C[C@]23C[C@@]1(O)CC[C@H]2[C@@]12C=C[C@H](O)[C@@](C)(C(=O)O1)[C@H]2[C@@H]3C(=O)O` yielded an inhibition [1] of -1.11% and an inhibition [2] of -5.65%.
`COc1ccc(-c2cc(=O)c3c(O)cc(O)cc3o2)cc1` showed an inhibition [1] of -1.38% and an inhibition [2] of -2.17%.
Work on `COc1c2c(cc3c1OCO3)CCN(C)C2` yielded an inhibition [1] of 9.58% and an inhibition [2] of 29.9%.
With `C[C@]1(C(=O)O)CCC[C@]2(C)c3cc(O)ccc3CC[C@@H]12` the inhibition [1] was -4.47% and the inhibition [2] was -2.99%.
`COc1cc(CNC(=O)CCCC/C=C/C(C)C)ccc1O` gave an inhibition [1] of -6.53% and an inhibition [2] of 6.29%.
`COc1ccc(C[C@H]2c3cc(OC)c(OC)cc3CC[N+]2(C)C)cc1OC` showed an inhibition [1] of 28.5% and an inhibition [2] of 2.85%.
`COc1cc(-c2oc3cc(O)cc(O)c3c(=O)c2OC2O[C@H](CO[C@@H]3O[C@@H](C)[C@H](O)[C@@H](O)[C@H]3O)[C@@H](O)[C@H](O)[C@H]2O)ccc1O` (stereo partly specified) was tested, and the inhibition [1] was 24.8% and the inhibition [2] was 0.75%.
Compound `COc1cc2c(c(OC)c1OC)-c1ccc(OC)c(=O)cc1[C@@H](NC=O)CC2` has an inhibition [1] of 23.9% and an inhibition [2] of -0.59%.
Work on `CC(=O)O[C@@H]1CC[C@@]2(C)[C@H](C1)[C@H](OC(C)=O)C[C@@H]1[C@@H]2C[C@H]2[C@@H]3CN4C[C@H](C)CC[C@H]4[C@H](C)[C@H]3CC[C@@]12O` yielded an inhibition [1] of 26.8% and an inhibition [2] of 4.14%.
Work on `C[n+]1cc2c3c(ccc2c2ccc4cc5c(cc4c21)OCO5)OCO3` yielded an inhibition [1] of 27% and an inhibition [2] of 1.3%.
Compound `CC[C@]1(O)C[C@H]2CN(CCc3c([nH]c4ccccc34)[C@@](C(=O)OC)(c3cc4c(cc3OC)N(C=O)[C@H]3[C@@](O)(C(=O)OC)[C@H](OC(C)=O)[C@]5(CC)C=CCN6CC[C@]43[C@@H]65)C2)C1` has an inhibition [1] of 10.9% and an inhibition [2] of 2.81%.
In the case of `C=C[C@](C)(O)CC[C@@H]1[C@@]2(C)CCCC(C)(C)[C@@H]2CC[C@@]1(C)O`, the inhibition [1] is reported as 3.08% and the inhibition [2] is reported as -2.61%.
`COc1cc(O)c2c(c1)oc(=O)c1c3cc(O)c(O)cc3oc21` gave an inhibition [1] of 11.8% and an inhibition [2] of 11.1%.
Work on `CN1[C@H]2CC(=O)C[C@@H]1C(O)C2` (stereo partly specified) yielded an inhibition [1] of -7.3% and an inhibition [2] of -3.92%.
Compound `Cn1c(-c2ccc3c(c2)OCO3)cc(=O)c2ccccc21` has an inhibition [1] of 31.1% and an inhibition [2] of 9.48%.
In the case of `Oc1cc(O)c2c(c1)O[C@H](c1ccc(O)c(O)c1)[C@@H](O)C2`, the inhibition [1] is reported as 7.03% and the inhibition [2] is reported as -5.96%.
With `CC1(C)CCC[C@](C)([C@H]2CC[C@]3(C)[C@@H]2[C@H](O)C[C@@H]2[C@@]4(C)CC[C@H](O)C(C)(C)[C@@H]4[C@@H](O)C[C@]23C)O1` the inhibition [1] was 6.16% and the inhibition [2] was 8.34%.
With `COc1cc2c(cc1O)C[C@H]1c3c(cc(O)c(OC)c3-2)CCN1C` the inhibition [1] was 9.51% and the inhibition [2] was 1.24%.
`CC1=CC(=O)C2=C(C)CC[C@@H]3[C@H](OC(=O)[C@H]3C)[C@@H]12` gave an inhibition [1] of -3.63% and an inhibition [2] of 0.28%.
In the case of `C/C=C(/C)C(=O)O[C@H]1C(C)=C2[C@H]([C@@H]1OC(=O)CCCCCCC)[C@@](C)(OC(C)=O)C[C@H](OC(=O)CCC)[C@@]1(O)[C@H]2OC(=O)[C@@]1(C)O`, the inhibition [1] is reported as 9.89% and the inhibition [2] is reported as 0.82%.
`CC(=O)OC[C@@]1(O)C[C@@]23CC[C@@H]4c5ccoc5C=C[C@@]4(C)[C@@H]2CC[C@@H]1C3` showed an inhibition [1] of 14.1% and an inhibition [2] of 1.7%.
With `C=C(C)[C@H]1Cc2c(ccc3c2O[C@@H]2COc4cc(OC)c(OC)cc4[C@@H]2C3=O)O1` the inhibition [1] was 16.4% and the inhibition [2] was 6.43%.
`O=c1c(O)c(-c2cc(O)c(O)c(O)c2)oc2cc(O)ccc12` was tested, and the inhibition [1] was 15.7% and the inhibition [2] was -7.22%.
For `COc1ccc(-c2coc3cc(O)cc(O)c3c2=O)cc1`, the inhibition [1] was 2.29% and the inhibition [2] was -9.1%.
`COc1cc(-c2oc3cc(O)ccc3c(=O)c2O)ccc1O` showed an inhibition [1] of 3.26% and an inhibition [2] of 12.8%.
`C=C(C)[C@@H]1CC[C@]2(CO)CC[C@]3(C)[C@H](CC[C@@H]4[C@@]5(C)CC[C@H](O)C(C)(C)[C@@H]5CC[C@]43C)[C@@H]12` was tested, and the inhibition [1] was 7.09% and the inhibition [2] was 0.47%.
Work on `C/C1=C\CC(C)(C)/C=C/C(=O)/C(C)=C/CC1` yielded an inhibition [1] of -4.84% and an inhibition [2] of 4.2%.
With NEOMYCIN SULFATE the inhibition [1] was -9.42% and the inhibition [2] was 10.5%.
Work on `C[C@@H]1C[C@H]2CC[C@H](O2)[C@H](C)C(=O)O[C@@H](C)C[C@@H]2CC[C@@H](O2)[C@@H](C)C(=O)O[C@H](C)C[C@H]2CC[C@@H](O2)[C@H](C)C(=O)O[C@@H](C)C[C@@H]2CC[C@@H](O2)[C@@H](C)C(=O)O1` yielded an inhibition [1] of 16.4% and an inhibition [2] of -1.31%.
`C[C@H]1C/C=C/[C@H]2[C@@H]3O[C@]3(C)[C@@H](C)[C@H]3[C@H](Cc4ccccc4)NC(=O)[C@]32OC(=O)O/C=C/[C@@](C)(O)C1=O` showed an inhibition [1] of 5.91% and an inhibition [2] of 9.25%.
Work on `CO[C@H]1C=C2CCN(C)[C@H]2[C@@H]2c3cc4c(cc3C(=O)O[C@@H]21)OCO4` yielded an inhibition [1] of 25.8% and an inhibition [2] of -2.26%.
`COc1ccc([C@@H]2CC(=O)c3c(O)cc(O[C@@H]4O[C@H](CO)[C@@H](O)[C@H](O)[C@H]4O[C@@H]4O[C@@H](C)[C@H](O)[C@@H](O)[C@H]4O)cc3O2)cc1O` was tested, and the inhibition [1] was 4.86% and the inhibition [2] was 0.1%.
`COc1c2c(nc3ccccc13)OC(C(C)(O)CO)C2` (stereo unspecified) was tested, and the inhibition [1] was 22.5% and the inhibition [2] was -2.71%.
With `CC[C@]12CCCN3CCc4c(n(c5ccccc45)[C@@](O)(C(=O)OC)C1)[C@@H]32` the inhibition [1] was 7.29% and the inhibition [2] was 3.22%.
`O=c1c(O)c(-c2ccc(O)cc2)oc2cc(O)cc(O)c12` was tested, and the inhibition [1] was 20% and the inhibition [2] was 5.23%.
`Cc1c2c(c(O)c3c(O)cccc13)C(=O)O[C@H]2[C@@H]1[C@H](O)C(=O)C(C(N)=O)=C(O)[C@H]1N(C)C` was tested, and the inhibition [1] was 16.9% and the inhibition [2] was 7.3%.
For `O=c1cc(-c2ccccc2)oc2cc(O)c(O)cc12`, the inhibition [1] was 23.1% and the inhibition [2] was 1.82%.
With `COC(=O)C[C@](O)(CCC(C)(C)O)C(=O)O[C@@H]1C(OC)=C[C@]23CCCN2CCc2cc4c(cc2[C@H]13)OCO4` the inhibition [1] was -5.71% and the inhibition [2] was 1.48%.
With `COc1cc([C@@H]2c3cc4c(cc3[C@@H](O[C@@H]3O[C@@H]5CO[C@@H](C)O[C@H]5[C@H](O)[C@H]3O)[C@H]3COC(=O)[C@H]23)OCO4)cc(OC)c1O` the inhibition [1] was -9.19% and the inhibition [2] was -5.72%.
Work on `C[C@@H]1O[C@@H](O[C@@H]2[C@@H](O)[C@H](O)[C@@H](CO)O[C@H]2c2c(O)cc(O)c3c(=O)cc(-c4ccc(O)cc4)oc23)[C@H](O)[C@H](O)[C@H]1O` yielded an inhibition [1] of 25.9% and an inhibition [2] of -3.3%.
With `C=C(C)[C@H]1CN[C@H](C(=O)O)[C@H]1CC(=O)O` the inhibition [1] was -5.89% and the inhibition [2] was 4.53%.
With `CO[C@H]1[C@H](O)[C@H](O[C@H]2CC[C@@]3(C=O)[C@H](CC[C@@H]4[C@@H]3CC[C@]3(C)[C@@H](C5=CC(=O)OC5)CC[C@]43O)C2)O[C@@H](C)[C@@H]1O` the inhibition [1] was 4.45% and the inhibition [2] was -1.96%.
In the case of `COc1cc(-c2oc3cc(O)cc(O)c3c(=O)c2O[C@@H]2O[C@H](CO)[C@@H](O)[C@H](O)[C@H]2O)ccc1O`, the inhibition [1] is reported as 30.6% and the inhibition [2] is reported as 1.08%.
`COC(=O)C1=CCCN(C)C1` gave an inhibition [1] of 16.9% and an inhibition [2] of 0.29%.
